Experimental findings from patent US9169240B2, “Ketone linked benzothiazole inhibitors of endothelial lipase” (BRISTOL-MYERS SQUIBB COMPANY, priority 2012, dated 2015) are described below.

Sequence of Endothelial lipase (EL) (Q9Y5X9 21-500): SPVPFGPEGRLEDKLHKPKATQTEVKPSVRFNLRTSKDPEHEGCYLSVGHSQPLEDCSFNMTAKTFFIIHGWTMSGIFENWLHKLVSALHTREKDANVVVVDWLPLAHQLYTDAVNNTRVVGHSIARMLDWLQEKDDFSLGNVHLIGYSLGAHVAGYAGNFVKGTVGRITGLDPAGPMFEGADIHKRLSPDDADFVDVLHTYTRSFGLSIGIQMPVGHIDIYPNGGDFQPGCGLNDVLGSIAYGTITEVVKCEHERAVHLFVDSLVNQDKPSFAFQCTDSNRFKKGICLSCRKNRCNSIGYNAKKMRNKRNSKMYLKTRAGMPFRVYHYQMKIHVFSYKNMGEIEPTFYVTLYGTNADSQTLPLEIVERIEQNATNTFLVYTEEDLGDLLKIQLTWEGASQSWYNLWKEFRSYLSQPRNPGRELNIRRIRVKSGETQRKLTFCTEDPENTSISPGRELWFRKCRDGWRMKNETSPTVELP

The assay concerns the target Endothelial lipase (EL) (Homo sapiens (Human), UniProt Q9Y5X9). The experiment in a line: Endothelial lipase (EL) activity assay with fluorescent substrate A10070 in DMPG vesicles. In kind it is biochemical. The method, then: Endothelial lipase activity was measured using a fluorescent substrate, A10070, (Invitrogen, CA) doped into an artificial vesicle containing DMPG (Avanti Polar Lipids) as the excipient. Vesicles were prepared by combining 285 μL of 1 mM DMPG in a 1:1 mixture of MeOH and CHCl3 with 15 μL of 1 mM A10070 in a 1:1 mixture of MeOH and CHCl3. The mixture was dried under nitrogen and resuspended in 150 μL of 50 mM HEPES pH 8.0 buffer containing 100 mM NaCl and 0.2 mM EDTA. The sample was allowed to sit at rt for 15 min and then was sonicated 3×4 mins on ice with a Branson Sonicator using duty cycle 1. This preparation provides vesicles with a mole fraction of 0.05 for the FRET substrate.
The enzymatic assay was measured using white, opaque 96-well half area plates. Each well contained 60 μL of assay buffer (50 mM HEPES pH 8.0, 50 mM NaCl and 1 mM CaCl2) and 2 ul of a DMSO solution containing compound of interest. Conditioned media obtained from HT-1080 cells, which were transformed by RAGE technology (Athersys) to overexpress endogenous EL, was added and the reaction was allowed to incubate for 20 min at 37° C. with gentle agitation. The reaction was started by the addition of 20 μL of a 1:4 dilution of vesicles. The final total reaction volume was 100 μL. The reaction rates were measured on a Gemini plate reader with an excitation wavelength of 488 nm and an emission of 530 nm. Readings were taken every 20 seconds for 10 min with agitation between each reading. The slope of the linear portion of the readout was used to calculate the rate of the reaction.
Compound `O=C(c1nnc(NCCc2ccccc2)o1)c1nc2ccc(-c3ccc(F)cc3)cc2s1` [Example 59, (6-(4-fluorophenyl)benzo[d]thiazol-2-yl)(5-(phenethylamino)-1,3,4-oxadiazol-2-yl)methanone] gave an IC50 of 49 nM.

In the case of `O=C(c1nnc(N[C@H]2CCNC2=O)o1)c1nc2ccc(-c3ccccc3)cc2s1` [Example 53, (S)-3-((5-(6-phenylbenzo[d]thiazole-2-carbonyl)-1,3,4-oxadiazol-2-yl)amino)pyrrolidin-2-one], the IC50 was less than 10 nM. Under `O=C(c1nnc(NCCc2ccccc2F)o1)c1nc2ccc(-c3ccc(F)cc3)cc2s1` [Example 63, (5-((2-fluorophenethyl)amino)-1,3,4-oxadiazol-2-yl)(6-(4-fluorophenyl)benzo[d]thiazol-2-yl)methanone] stands 290 nM; under `O=C(c1nnc(N[C@H]2CCNC2=O)o1)c1nc2ccc(-c3ccc(OC(F)F)cc3)cc2s1` [Example 82, (S)-3-((5-(6-(4-(difluoromethoxy)phenyl)benzo[d]thiazole-2-carbonyl)-1,3,4-oxadiazol-2-yl)amino)pyrrolidin-2-one], less than 10 nM; under `CC1(Cc2nnc(C(=O)c3nc4ccc(-c5ccccc5)cc4s3)o2)NC(=O)NC1=O` (centres unmarked) [Example 33, 5-methyl-5-((5-(6-phenylbenzo[d]thiazole-2-carbonyl)-1,3,4-oxadiazol-2-yl)methyl)-imidazol-idine-2,4-dione], 21 nM.

Compound `O=C(c1nnc(N2CC[C@H](OCc3ccccc3)C2)o1)c1nc2ccc(-c3ccccc3)cc2s1` [Example 81, (S)-(5-(3-(benzyloxy)pyrrolidin-1-yl)-1,3,4-oxadiazol-2-yl)(6-phenylbenzo[d]thiazol-2-yl)methanone] gave an IC50 of 490 nM. Compound `NS(=O)(=O)NCCc1nnc(C(=O)c2nc3ccc(-c4ccccc4)cc3s2)o1` [Example 28, N-(2-(5-((6-phenyl-1,3-benzothiazol-2-yl)carbonyl)-1,3,4-oxadiazol-2-yl)ethyl)sulfamide] had an IC50 of 36 nM.

As to `CN1CCC(Nc2nnc(C(=O)c3nc4ccc(-c5ccccc5)cc4s3)o2)C1=O` (centres unmarked) [Example 70, 1-methyl-3-((5-(6-phenylbenzo[d]thiazole-2-carbonyl)-1,3,4-oxadiazol-2-yl)amino)pyrrolidin-2-one], half-maximal inhibition (IC50) was put at 190 nM. With `Nc1nnc(C(=O)c2nc3ccc(-c4ccccc4)cc3s2)o1` [Example 89, (5-Amino-1,3,4-oxadiazol-2-yl)(6-phenylbenzo[d]thiazol-2-yl)methanone] the figure was 29 nM; with `O=C(c1nnc(N[C@H]2CCNC2=O)o1)c1nc2c(F)cc(-c3ccccc3)cc2s1` [Example 55, (S)-3-((5-(4-fluoro-6-phenylbenzo[d]thiazole-2-carbonyl)-1,3,4-oxadiazol-2-yl)amino)pyrrolidin-2-one], 10 nM. Regarding `CN(c1nnc(C(=O)c2nc3ccc(-c4ccccc4)cc3s2)o1)[C@H]1CCNC1=O` [Example 86, (S)-3-(Methyl(5-(6-phenylbenzo[d]thiazole-2-carbonyl)-1,3,4-oxadiazol-2-yl)amino)pyrrolidin-2-one], the IC50 turned out to be 101 nM. On to `O=C(c1nnc(NCCc2ccc(F)cc2)o1)c1nc2ccc(-c3ccc(F)cc3)cc2s1` [Example 60, (5-((4-fluorophenethyl)amino)-1,3,4-oxadiazol-2-yl)(6-(4-fluorophenyl)benzo[d]thiazol-2-yl)methanone], for which the IC50 is 56 nM. The compound `O=C(c1nnc(CCc2ncc(-c3ccccc3)o2)o1)c1nc2ccc(-c3ccccc3)cc2s1` [Example 9, (6-phenylbenzo[d]thiazol-2-yl)(5-(2-(5-phenyloxazol-2-yl)ethyl)-1,3,4-oxadiazol-2-yl)methanone] displayed an IC50 of less than 10 nM. `O=C(c1nnc(N[C@@H]2CCNC2=O)o1)c1nc2ccc(-c3ccccc3)cc2s1` [Example 56, (R)-3-((5-(6-phenylbenzo[d]thiazole-2-carbonyl)-1,3,4-oxadiazol-2-yl)amino)pyrrolidin-2-one]: the IC50 came out at 46 nM. The compound `O=C(Cc1nnc(C(=O)c2nc3ccc(-c4ccccc4)cc3s2)o1)NC1CC1` [Example 50, N-Cyclopropyl-2-(5-(6-phenylbenzo[d]thiazole-2-carbonyl)-1,3,4-oxadiazol-2-yl)acetamide] came in with an IC50 of less than 10 nM. In turn, `O=C(c1nnc(C2CCN(c3ccc(C(F)(F)F)cc3)CC2)o1)c1nc2ccc(-c3ccccc3)cc2s1` [Example 13, (6-phenylbenzo[d]thiazol-2-yl)(5-(1-(4-(trifluoromethyl)phenyl)piperidin-4-yl)-1,3,4-oxadiazol-2-yl)methanone] registered an IC50 of less than 10 nM. With `O=C(c1nnc(C2CCN(c3ncccn3)CC2)o1)c1nc2ccc(-c3ccccc3)cc2s1` [Example 7, (6-phenylbenzo[d]thiazol-2-yl)(5-(1-(pyrimidin-2-yl)piperidin-4-yl)-1,3,4-oxadiazol-2-yl)methanone] the figure was less than 10 nM; with `CC(C)(C)CN1CCC(c2nnc(C(=O)c3nc4ccc(-c5ccccc5)cc4s3)o2)CC1` [Example 45, (5-(1-Neopentylpiperidin-4-yl)-1,3,4-oxadiazol-2-yl)(6-phenylbenzo[d]thiazol-2-yl)methanone], 14 nM; with `COC(=O)[C@H](COC(C)(C)C)Nc1nnc(C(=O)c2nc3ccc(-c4ccc(F)cc4)cc3s2)o1` [Example 61, (S)-methyl 3-(tert-butoxy)-2-((5-(6-(4-fluorophenyl)benzo[d]thiazole-2-carbonyl)-1,3,4-oxadiazol-2-yl)amino)propanoate], 140 nM.

On to `CC(C)(C)OC(=O)N1CCC(c2nnc(C(=O)c3nc4ccc(-c5ccccc5)cc4s3)o2)CC1` [Example 20, tert-butyl 4-(5-(6-phenylbenzo[d]thiazole-2-carbonyl)-1,3,4-oxadiazol-2-yl)piperidine-1-carboxylate], for which the IC50 is less than 10 nM. `NC(=O)NCc1nnc(C(=O)c2nc3ccc(-c4ccccc4)cc3s2)o1` [Example 49, 1-((5-(6-Phenylbenzo[d]thiazole-2-carbonyl)-1,3,4-oxadiazol-2-yl)methyl)urea] displayed an IC50 of 25 nM. Compound `O=C(c1nnc(CCc2ncc[nH]2)o1)c1nc2ccc(-c3ccccc3)cc2s1` [Example 8, (5-(2-(1H-imidazol-2-yl)ethyl)-1,3,4-oxadiazol-2-yl)(6-phenylbenzo[d]thiazol-2-yl)methanone] registered an IC50 of 11 nM.

In turn, `O=C(c1nnc(N[C@H](CCO)C(=O)O)o1)c1nc2ccc(-c3ccccc3)cc2s1` [Example 68, (R)-4-hydroxy-2-((5-(6-phenylbenzo[d]thiazole-2-carbonyl)-1,3,4-oxadiazol-2-yl)amino)butanoic acid] came in with an IC50 of 27 nM. With `O=C(c1nnc(CC2CCNC2=O)o1)c1nc2ccc(-c3ccccc3)cc2s1` (centres unmarked) [Example 3, 3-((5-(6-phenylbenzo[d]thiazole-2-carbonyl)-1,3,4-oxadiazol-2-yl)methyl)pyrrolidin-2-one] the figure was less than 10 nM; with `O=C(c1nnc(N[C@H]2CCN(CC(F)(F)F)C2=O)o1)c1nc2ccc(-c3ccccc3)cc2s1` [Example 91, (S)-3-((5-(6-Phenylbenzo[d]thiazole-2-carbonyl)-1,3,4-oxadiazol-2-yl)amino)-1-(2,2,2-trifluoroethyl)pyrrolidin-2-one], 490 nM. `O=C(c1nnc(N[C@H]2CCNC2=O)o1)c1nc2ccc(-c3ccc(F)cc3)cc2s1` [Example 54, (S)-3-((5-(6-(4-fluorophenyl)benzo [d]thiazole-2-carbonyl)-1,3,4-oxadiazol-2-yl)amino)pyrrolidin-2-one] yielded an IC50 of less than 10 nM. In turn, `O=C(c1nnc(NCCc2ccc(Cl)cc2)o1)c1nc2ccc(-c3ccc(F)cc3)cc2s1` [Example 64, (5-((4-chlorophenethyl)amino)-1,3,4-oxadiazol-2-yl)(6-(4-fluorophenyl)benzo[d]thiazol-2-yl)methanone] showed an IC50 of 6.6 nM. In turn, `O=C(c1nnc(C2CCN(Cc3ccc(OC(F)(F)F)cc3)CC2)o1)c1nc2ccc(-c3ccccc3)cc2s1` [Example 23, (6-Phenylbenzo[d]thiazol-2-yl)(5-(1-(4-(trifluoromethoxy)benzyl)piperidin-4-yl)-1,3,4-oxadiazol-2-yl)methanone] gave an IC50 of less than 10 nM.

`CC(C)N1C(=O)NC(C)(Cc2nnc(C(=O)c3nc4ccc(-c5ccccc5)cc4s3)o2)C1=O` (centres unmarked) [Example 39, 3-isopropyl-5-methyl-5-((5-(6-phenylbenzo-[d]thiazole-2-carbonyl)-1,3,4-oxadiazol-2-yl)methyl)-imidazol-idine-2,4-dione]: the IC50 was less than 10 nM. Take `NS(=O)(=O)CCNc1nnc(C(=O)c2nc3ccc(-c4ccccc4)cc3s2)o1` [Example 72, 2-((5-(6-phenylbenzo[d]thiazole-2-carbonyl)-1,3,4-oxadiazol-2-yl)amino)ethanesulfonamide]: the IC50 was determined as 88 nM. Under `CC(C)(C)OC(=O)CNc1nnc(C(=O)c2nc3ccc(-c4ccccc4)cc3s2)o1` [Example 67, tert-butyl 2-((5-(6-phenylbenzo[d]thiazole-2-carbonyl)-1,3,4-oxadiazol-2-yl)amino)acetate] stands 130 nM.

For `COc1ccc(CNc2nnc(C(=O)c3nc4ccc(-c5ccccc5)cc4s3)o2)c(OC)c1` [Example 69], half-maximal inhibition (IC50) required 310 nM.
